Data from patent US6727250B2, “Carboxylic acid amides, pharmaceutical compositions containing these compounds, their use and preparation” (Boehringer Ingelheim Pharma KG, priority 1999, dated 2004).

Target: T1, telomerase in nuclear extracts from HeLa cells (Homo sapiens, UniProt O14746)
T1 construct: The activity of telomerase in nuclear extracts from HeLa cells; endogenous in cells; host or cells: HeLa-S3 nuclear extract (ATCC CCL-2.2), prepared according to Dignam
Assay: Telomerase test: activity of telomerase in nuclear extracts from HeLa cells (method of Morin)
Assay type: biochemical
Details: concentration of inhibitor which inhibits the telomerase activity by 50%; HeLa nuclear extract, 120 minutes at 30° C., Phospho-Imager quantification
Experimental: The inhibiting effect of the carboxylic acid amides of general formula I on telomerase was investigated as follows: […]
1. Preparation of Nuclear Extracts from HeLa Cells:
Nuclear extracts were prepared according to Dignam (Dignam et al. in Nucleic Acids Res. 11, 1475-1489 (1983)). All the steps were carried out at 4° C., all the equipment and solutions were pre-cooled to 4° C. At least 1×10^9 HeLa-S3 cells growing in suspension culture (ATCC catalogue number CCL-2.2) were harvested by centrifuging for 5 minutes at 1000× g and washed once with PBS buffer ([…]; 2.7 mM KCl; 8.1 mM Na2HPO4; 1.5 mM KH2PO4). After the cell volume had been determined, the cells were suspended in 5 times the volume of hypotonic buffer (10 mM HEPES/KOH, pH 7.8; 10 mM KCl; 1.5 mM MgCl2) and then left for 10 minutes at 4° C. After centrifuging for 5 minutes at 1000× g the cell pellet was suspended in twice the volume of hypotonic buffer in the presence of 1 mM DTE and 1 mM PMSF and broken up with a Dounce homogeniser. The homogenised material was made isotonic with 0.1 volume of 10-fold saline buffer (300 mM HEPES/KOH, pH 7.8; 1.4 M KCl; 30 mM MgCl2). The cell nuclei were separated from the ingredients of the cytoplasm by centrifuging and then suspended in twice the volume of nuclear extraction buffer (20 mM HEPES/KOH, pH 7.9; 420 mM KCl; 1.5 mM MgCl2; 0.2 mM EDTA; 0.5 mM DTE; 25% glycerol). The nuclei were broken up using a Dounce homogeniser and incubated for 30 minutes at 4° C. with gentle stirring. Any insoluble ingredients were removed by centrifuging for 30 minutes at 10.000 rpm (SS-34 Rotor). Then the nuclear extract was dialysed for 4-5 hours against AM-100 buffer (20 mM tris/HCl, pH 7.9; 100 mM KCl; 0.1 mM EDTA; 0.5 mM DTE; 20% glycerol). The nuclear extracts obtained were frozen in liquid nitrogen and stored at −80° C.
The activity of telomerase in nuclear extracts from HeLa cells was determined using the method described by Morin (Morin in Cell 59, 521-529 (1989)). […] If the inhibition constant of potential telomerase inhibitors was to be determined, these were also added to the telomerase reaction in a concentration range of from 1 nM to 100 μM.
The reaction was then stopped by the addition of 50 μl of RNase stop buffer (10 mM tris/HCL, pH 8.0; 20 mM EDTA; 0.1 mg/ml of RNase A 100 U/ml of RNase T1; 1000 cpm of an α-^32P-dGTP labelled, 430 bp DNA fragment) and incubation was continued for a further 15 minutes at 37° C. Proteins present in the reaction mixture were cleaved by the addition of 50 μl of proteinase K buffer (10 mM tris/HCL, pH 8.0; 0.5% SDS; 0.3 mg/ml of proteinase K) and subsequent incubation for 15 min at 37° C. The DNA was purified by extracting twice with phenol-chloroform and precipitated by adding 2.4 M ammonium acetate; 3 μg tRNA and 750 μl ethanol. Then the precipitated DNA was washed with 500 μl of 70% ethanol, dried at ambient temperature, taken up in 4 μl of formamide probe buffer (80% (V/V) formamide; 50 mM of tris-borate, pH 8.3; 1 mM EDTA; 0.1 (w/v) of xylene cyanol; 0.1% (w/v) bromophenol blue) and separated by electrophoresis on a sequence gel (8% polyacrylamide, 7 M urea, 1× TBE buffer). The DNA synthesised by telomerase in the presence or absence of potential inhibitors was identified and quantified by Phospho-Imager Analysis (Molecular Dynamics) and in this way the concentration of inhibitor which inhibits the telomerase activity by 50% (IC50) was determined.

T1 sequence (O14746 whole entry): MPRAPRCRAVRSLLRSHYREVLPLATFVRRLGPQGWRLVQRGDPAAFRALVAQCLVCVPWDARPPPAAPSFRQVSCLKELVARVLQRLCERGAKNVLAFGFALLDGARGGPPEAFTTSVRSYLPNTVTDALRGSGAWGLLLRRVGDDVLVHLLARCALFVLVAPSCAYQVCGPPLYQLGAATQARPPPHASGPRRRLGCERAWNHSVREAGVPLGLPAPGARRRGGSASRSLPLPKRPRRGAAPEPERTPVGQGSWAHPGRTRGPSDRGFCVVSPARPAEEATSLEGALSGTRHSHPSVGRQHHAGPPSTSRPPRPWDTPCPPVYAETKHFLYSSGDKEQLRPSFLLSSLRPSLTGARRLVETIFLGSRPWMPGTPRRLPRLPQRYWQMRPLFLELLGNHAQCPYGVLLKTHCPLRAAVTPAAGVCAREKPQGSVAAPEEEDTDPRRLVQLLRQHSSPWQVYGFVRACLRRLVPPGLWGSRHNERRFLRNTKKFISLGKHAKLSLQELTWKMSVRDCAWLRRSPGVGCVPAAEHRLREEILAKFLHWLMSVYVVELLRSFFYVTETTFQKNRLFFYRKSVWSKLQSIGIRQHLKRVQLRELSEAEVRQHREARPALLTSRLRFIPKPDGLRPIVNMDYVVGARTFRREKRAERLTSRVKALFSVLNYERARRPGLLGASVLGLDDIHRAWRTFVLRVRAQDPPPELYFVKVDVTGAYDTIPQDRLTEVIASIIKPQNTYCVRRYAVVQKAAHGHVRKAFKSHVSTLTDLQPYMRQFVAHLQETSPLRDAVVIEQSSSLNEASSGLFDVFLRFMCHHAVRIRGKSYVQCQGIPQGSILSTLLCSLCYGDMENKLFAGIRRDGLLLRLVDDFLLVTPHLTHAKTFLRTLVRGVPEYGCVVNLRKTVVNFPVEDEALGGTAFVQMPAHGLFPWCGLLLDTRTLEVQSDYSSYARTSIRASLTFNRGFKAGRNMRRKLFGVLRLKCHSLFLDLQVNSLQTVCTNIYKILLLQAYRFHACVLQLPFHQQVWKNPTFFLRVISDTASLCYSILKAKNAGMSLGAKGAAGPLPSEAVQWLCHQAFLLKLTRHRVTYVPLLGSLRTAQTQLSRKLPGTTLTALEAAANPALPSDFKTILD
T1 sequence (O60832 whole entry partner): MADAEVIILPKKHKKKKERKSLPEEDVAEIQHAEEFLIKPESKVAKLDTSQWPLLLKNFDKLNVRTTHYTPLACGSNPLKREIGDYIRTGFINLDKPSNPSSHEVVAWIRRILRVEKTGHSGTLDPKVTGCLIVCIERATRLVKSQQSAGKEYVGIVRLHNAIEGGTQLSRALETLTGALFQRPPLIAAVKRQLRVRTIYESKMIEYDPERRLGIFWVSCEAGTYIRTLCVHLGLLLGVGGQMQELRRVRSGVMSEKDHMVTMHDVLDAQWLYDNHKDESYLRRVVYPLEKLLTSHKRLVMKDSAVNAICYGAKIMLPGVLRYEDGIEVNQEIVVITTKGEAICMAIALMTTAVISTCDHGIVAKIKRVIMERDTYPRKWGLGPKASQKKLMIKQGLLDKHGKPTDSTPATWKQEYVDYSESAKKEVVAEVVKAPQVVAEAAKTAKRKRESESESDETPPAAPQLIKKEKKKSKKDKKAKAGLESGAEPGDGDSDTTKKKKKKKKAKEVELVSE
T1 sequence (Q9NPE3 whole entry partner): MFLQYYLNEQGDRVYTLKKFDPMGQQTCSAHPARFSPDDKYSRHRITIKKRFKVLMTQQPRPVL
T1 sequence (Q9NX24 whole entry partner): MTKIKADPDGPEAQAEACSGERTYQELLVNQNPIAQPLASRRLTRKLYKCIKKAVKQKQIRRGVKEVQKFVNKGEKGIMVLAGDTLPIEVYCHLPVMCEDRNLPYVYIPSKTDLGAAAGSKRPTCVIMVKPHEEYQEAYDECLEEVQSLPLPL
T1 sequence (Q9NY12 whole entry partner): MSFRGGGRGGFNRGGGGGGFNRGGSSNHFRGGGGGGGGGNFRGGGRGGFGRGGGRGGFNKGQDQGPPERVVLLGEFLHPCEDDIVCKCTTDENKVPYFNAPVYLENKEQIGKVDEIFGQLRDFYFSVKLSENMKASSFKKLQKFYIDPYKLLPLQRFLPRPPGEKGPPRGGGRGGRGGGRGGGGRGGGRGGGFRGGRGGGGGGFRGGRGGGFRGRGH
T1 sequence (Q9BUR4 whole entry partner): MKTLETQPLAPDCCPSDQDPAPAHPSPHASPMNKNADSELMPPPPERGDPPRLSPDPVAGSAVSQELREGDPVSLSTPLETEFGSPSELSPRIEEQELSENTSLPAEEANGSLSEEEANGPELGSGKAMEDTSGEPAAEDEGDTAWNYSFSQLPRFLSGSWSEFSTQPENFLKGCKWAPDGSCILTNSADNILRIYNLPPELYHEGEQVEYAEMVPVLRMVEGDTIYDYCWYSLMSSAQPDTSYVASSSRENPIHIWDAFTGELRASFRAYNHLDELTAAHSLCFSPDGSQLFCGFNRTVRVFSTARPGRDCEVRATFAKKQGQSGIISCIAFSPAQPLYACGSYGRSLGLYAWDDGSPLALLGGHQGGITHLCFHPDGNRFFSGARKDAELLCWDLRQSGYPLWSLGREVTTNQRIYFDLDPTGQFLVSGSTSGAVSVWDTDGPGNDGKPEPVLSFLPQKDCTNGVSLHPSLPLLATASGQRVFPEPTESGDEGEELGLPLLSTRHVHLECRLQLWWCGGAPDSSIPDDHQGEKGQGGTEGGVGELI

| SMILES | IC50 |
| --- | --- |
| C/C(=C\C(=O)Nc1ccccc1C(=O)O)c1ccc(Cl)c(Cl)c1 [Example 10, trans-3-(3,4-dichlorophenyl)-but-2-enoic acid-N-(2-carboxy-phenyl)-amide] | 5000 nM |
| COc1cc(C(=O)O)c(NC(=O)/C=C(\C)c2ccc(Cl)c(Cl)c2)cc1C [Example 17, trans-3-(3,4-dichlorophenyl)-but-2-enoic acid-N-(2-carboxy-4-methoxy-5-methyl-phenyl)-amide] | 1000 nM |
| C/C(=C\C(=O)Nc1cc(Cl)ccc1C(=O)O)c1ccc2ccccc2c1 [Example 29, trans-3-(naphth-2-yl)-but-2-enoic acid-N-(2-carboxy-5-chloro-phenyl)-amide] | 550 nM |
| C/C(=C\C(=O)Nc1ccc(F)cc1C(=O)O)c1ccc2ccccc2c1 [Example 31, trans-3-(naphth-2-yl)-but-2-enoic acid-N-(2-carboxy-4-fluoro-phenyl)-amide] | 100 nM |

Stronger by IC50, values ahead:

| IC50 | SMILES |
| --- | --- |
| 40 nM | C/C(=C\C(=O)Nc1ccccc1C(=O)O)c1ccc2ccccc2c1 [Example 18, trans-3-(naphth-2-yl)-but-2-enoic acid-N-(2-carboxy-phenyl)-amide] |
| 35 nM | COc1cc(NC(=O)/C=C(\C)c2ccc3ccccc3c2)c(C(=O)O)cc1OC [Example 28, trans-3-(naphth-2-yl)-but-2-enoic acid-N-(2-carboxy-4,5-dimethoxy-phenyl)-amide] |
